# Laboratory results as given in patent US20240148821A1, “PHARMACEUTICAL USE OF CYCLIC PEPTIDE COMPOUND” (CHUGAI SEIYAKU KABUSHIKI KAISHA, priority 2021, published 2024).
# Numbered stars: 1 amine (or outer) side, 2 acyl side, 3 side chain; on linkers, the order of the positions; unused ones are H or OH. Bridge positions count the residues as written; N and C are the ends. Square brackets hold non-standard residues; d marks the D form. Peptide text beside a SMILES is read from it. * marks the point of attachment. hPhe(3,5-F2-4-CF3) = N[C@@H](CCc1cc(F)c(C(F)(F)F)c(F)c1)C(=O)O; hPhe(3-Cl-4-CF3) = N[C@@H](CCc1ccc(C(F)(F)F)c(Cl)c1)C(=O)O; hPhe(3-F,4-CF3) = N[C@@H](CCc1ccc(C(F)(F)F)c(F)c1)C(=O)O; NEtPhe(4-CF3) = CCN[C@@H](Cc1ccc(C(F)(F)F)cc1)C(=O)O; NMePhe(4-CF3) = CN[C@@H](Cc1ccc(C(F)(F)F)cc1)C(=O)O; NEtPhe(4-Me) = CCN[C@@H](Cc1ccc(C)cc1)C(=O)O; NMePhe(4-Cl) = CN[C@@H](Cc1ccc(Cl)cc1)C(=O)O; NMePhe(4-Me) = CN[C@@H](Cc1ccc(C)cc1)C(=O)O; NMeNle(6-CHF2) = CN[C@@H](CCCCC(F)F)C(=O)O; NMedβ3hAla = C[C@H](CC(=O)[*:2])N(C)[*:1]; NMeGly(cPent) = CN[C@H](C(=O)O)C1CCCC1; NMeCha = CN[C@@H](CC1CCCCC1)C(=O)O; Hyp = O=C(O)[C@@H]1C[C@@H](O)CN1; NEtLeu = CCN[C@@H](CC(C)C)C(=O)O; NMeAhp(2) = CCCCC[C@H](NC)C(=O)O; NMeChg = CN[C@H](C(=O)O)C1CCCCC1; NMeI = CC[C@H](C)[C@H](NC)C(=O)O; NMeD = CN[C@@H](CC(=O)O)C(=O)O; NMeL = CN[C@@H](CC(C)C)C(=O)O; Chg = N[C@H](C(=O)O)C1CCCCC1; NMeV = CN[C@H](C(=O)O)C(C)C; d(β3hA) = C[C@@H](N)CC(=O)O; NMeS = CN[C@@H](CO)C(=O)O; Morpholide = C1CN(*)CCO1; NMeA = CN[C@@H](C)C(=O)O; NMeAib = CNC(C)(C)C(=O)O; Nphe = O=C(O)CNCc1ccccc1; Piperidide = C1CCN(*)CC1; Pyrrolidide = C1CCN(*)C1; Ac5c = NC1(C(=O)O)CCCC1; Aze = O=C(O)[C@@H]1CCN1; Ac4c = NC1(C(=O)O)CCC1; Aib = CC(C)(N)C(=O)O; Isopentyl = CC(C)CC*; Sar = CNCC(=O)O
# Experiments:
# [1] = molecular target: protein-protein interaction between Kras and SOS1 (biotin-tagged human Kras loaded with GDP, His-tagged human SOS1) (Homo sapiens (Human), UniProt P01116, G12D); experiment: Protein-protein interaction inhibition between Kras and SOS1 (KrasG12D-SOS PPI) using AlphaScreen; assay type: biochemical; settings: AlphaScreen; biotin-tagged human Kras loaded with GDP, His-tagged human SOS1; read-out: KRAS G12D-SOS PPI IC50;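 further: kras produced in E. coli, Ni-coupled donor beads and streptavidin acceptor beads, excitation 680 nm with emission detected at 520–620 nm via singlet oxygen transfer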
# [2] = system: Human pancreatic cancer cell line AsPC-1 (G12D mutation Kras); experiment: AsPC-1 cell growth inhibition (AsPC-1 CGI); assay type: cell-based; settings: read-out: AsPC-1 cell growth inhibition, 50% growth inhibitory concentration (IC50 value); 96 hours, CellTiter-Glo, values classified in ranges
SMILES,IC50 [1],IC50 [2]
"CC[C@H](C)[C@@H]1NC(=O)[C@H](CC(C)C)N(C)C(=O)C[C@@H](C(=O)N(C)C)N(C)C(=O)[C@H]([C@@H](C)CC)N(C)C(=O)C2(CCCC2)NC(=O)[C@@H]2CCCN2C(=O)[C@H](CCc2ccc(C(F)(F)F)c(F)c2)NC(=O)CN(C)C(=O)[C@H](Cc2ccc(C)cc2)N(C)C(=O)[C@@H]2CCN2C(=O)[C@H](C)N(C)C1=O [Compound 1017] ([NMeL]I[NMeA][Aze][NMePhe(4-Me)][Sar][hPhe(3-F,4-CF3)]P[Ac5c][NMeI][NMeD]-NMe2; lactam N-11)",0.88 nM,≤ 20 nM
CC[C@H](C)[C@@H]1NC(=O)[C@H](CC(C)C)N(C)C(=O)C[C@@H](C(=O)N2CCCCC2)N(C)C(=O)[C@H](C2CCCCC2)N(C)C(=O)C2(CCCC2)NC(=O)[C@H](COCCC(C)C)N(C)C(=O)[C@H](CCc2ccc(C(F)(F)F)c(Cl)c2)NC(=O)CN(C)C(=O)[C@H](CC2CCCCC2)N(C)C(=O)CN(C)C(=O)CN(C)C1=O [Compound 940] ([NMeL]I[Sar][Sar][NMeCha][Sar][hPhe(3-Cl-4-CF3)][NMeS](Isopentyl)[Ac5c][NMeChg][NMeD]-Piperidide; lactam N-11),150 nM,> 500 nM
"CC(C)C[C@H]1C(=O)N[C@@H](C2CCCCC2)C(=O)N(C)CC(=O)N(C)CC(=O)N(C)[C@@H](CCCCC(F)F)C(=O)N(C)CC(=O)N[C@@H](CCc2ccc(C(F)(F)F)c(F)c2)C(=O)N(C)[C@@H](CC(C)C)C(=O)NC(C)(C)C(=O)N(C)[C@@H](CC(C)C)C(=O)N[C@H](C)CC(=O)N1C [Compound 1460] (cyclo([Aib][NMeL][d(β3hA)][NMeL][Chg][Sar][Sar][NMeNle(6-CHF2)][Sar][hPhe(3-F,4-CF3)][NMeL]))",130 nM,> 500 nM
"CC[C@H](C)[C@@H]1NC(=O)[C@H](CC(C)C)N(C)C(=O)C[C@@H](C(=O)N(C)C)N(C)C(=O)[C@H](C2CCCC2)N(C)C(=O)C2(CCCC2)NC(=O)[C@@H]2CCCN2C(=O)[C@H](CCc2ccc(C(F)(F)F)c(F)c2)NC(=O)CN(C)C(=O)[C@H](Cc2ccc(C)cc2)N(CC)C(=O)[C@@H]2CCN2C(=O)[C@H](C)N(C)C1=O [Compound 1152] ([NMeL]I[NMeA][Aze][NEtPhe(4-Me)][Sar][hPhe(3-F,4-CF3)]P[Ac5c][NMeGly(cPent)][NMeD]-NMe2; lactam N-11)",1.2 nM,≤ 20 nM
CCCCC[C@H]1C(=O)N[C@@H]([C@@H](C)CC)C(=O)N(C)[C@@H](C)C(=O)N2CC[C@H]2C(=O)N(C)[C@@H](C2CCCC2)C(=O)N(C)CC(=O)N[C@@H](CCc2ccc(C(F)(F)F)c(Cl)c2)C(=O)N2CCC[C@H]2C(=O)NC2(CCCC2)C(=O)N(C)[C@@H](C2CCCC2)C(=O)N(C)[C@H](C(=O)N2CCOCC2)CC(=O)N1C [Compound 343] ([NMeAhp(2)]I[NMeA][Aze][NMeGly(cPent)][Sar][hPhe(3-Cl-4-CF3)]P[Ac5c][NMeGly(cPent)][NMeD]-Morpholide; lactam N-11),0.87 nM,≤ 20 nM
"CC[C@H](C)[C@@H]1NC(=O)[C@H](CC(C)C)N(C)C(=O)C[C@@H](C)N(C)C(=O)[C@H](CC(C)C)NC(=O)C(C)(C)N(C)C(=O)[C@H](Cc2ccccc2)NC(=O)[C@H](CCc2ccc(C(F)(F)F)c(F)c2)NC(=O)CN(C)C(=O)[C@H](Cc2ccc(Cl)cc2)N(C)C(=O)CN(C)C(=O)CN(C)C1=O [Compound 471] (cyclo(F[NMeAib]L[NMedβ3hAla][NMeL]I[Sar][Sar][NMePhe(4-Cl)][Sar][hPhe(3-F,4-CF3)]))",58 nM,> 500 nM
CCO[C@@H]1C[C@H]2C(=O)NC3(CCC3)C(=O)N(C)[C@@H](C3CCCC3)C(=O)N(C)[C@H](C)CC(=O)N(C)[C@@H](CC(C)C)C(=O)N[C@@H]([C@@H](C)CC)C(=O)N(C)[C@@H](C)C(=O)N3CC[C@H]3C(=O)N(CC)[C@@H](Cc3ccc(C(F)(F)F)cc3)C(=O)N(C)CC(=O)N[C@@H](CCc3ccc(C(F)(F)F)c(Cl)c3)C(=O)N2C1 [Compound 594] (cyclo([Ac4c][NMeGly(cPent)][NMedβ3hAla][NMeL]I[NMeA][Aze][NEtPhe(4-CF3)][Sar][hPhe(3-Cl-4-CF3)][Hyp](Et))),0.54 nM,≤ 20 nM
CC[C@H](C)[C@@H]1NC(=O)[C@H](CC(C)C)N(CC)C(=O)C[C@@H](C(=O)N2CCCC2)N(C)C(=O)[C@H]([C@@H](C)CC)N(C)C(=O)C2(CCCC2)NC(=O)[C@@H]2CCCN2C(=O)[C@H](CCc2ccc(C(F)(F)F)c(Cl)c2)NC(=O)CN(C)C(=O)[C@H](Cc2ccc(C(F)(F)F)cc2)N(C)C(=O)[C@@H]2CCN2C(=O)[C@H](C)N(C)C1=O [Compound 1190] ([NEtLeu]I[NMeA][Aze][NMePhe(4-CF3)][Sar][hPhe(3-Cl-4-CF3)]P[Ac5c][NMeI][NMeD]-Pyrrolidide; lactam N-11),0.83 nM,≤ 20 nM
"CC[C@H](C)[C@@H]1NC(=O)[C@H](CC(C)C)N(C)C(=O)C[C@@H](C)N(C)C(=O)[C@H](CC(C)C)NC(=O)C(C)(C)N(C)C(=O)[C@H](CC(C)C)NC(=O)[C@H](CCc2cc(F)c(C(F)(F)F)c(F)c2)NC(=O)CN(C)C(=O)[C@H](Cc2ccc(Cl)cc2)N(C)C(=O)CN(C)C(=O)CN(C)C1=O [Compound 687] (cyclo(I[Sar][Sar][NMePhe(4-Cl)][Sar][hPhe(3,5-F2-4-CF3)]L[NMeAib]L[NMedβ3hAla][NMeL]))",16 nM,> 500 nM
CC[C@H](C)[C@@H]1NC(=O)[C@H](C)N(C)C(=O)C[C@@H](C(=O)N2CCCCC2)N(C)C(=O)[C@H](C(C)C)N(C)C(=O)C2(CCCC2)NC(=O)CN(Cc2ccccc2)C(=O)[C@H](CCc2ccc(C(F)(F)F)c(Cl)c2)NC(=O)CN(C)C(=O)[C@H](CC2CCCCC2)N(C)C(=O)CN(C)C(=O)CN(C)C1=O [Compound 1676] ([NMeA]I[Sar][Sar][NMeCha][Sar][hPhe(3-Cl-4-CF3)][Nphe][Ac5c][NMeV][NMeD]-Piperidide; lactam N-11),1.6 nM,> 500 nM
"CCO[C@@H]1C[C@H]2C(=O)NC3(CCCC3)C(=O)N(C)[C@@H]([C@@H](C)CC)C(=O)N(C)[C@H](C)CC(=O)N(C)[C@@H](CC(C)C)C(=O)N[C@@H]([C@@H](C)CC)C(=O)N(C)[C@@H](C)C(=O)N3CC[C@H]3C(=O)N(CC)[C@@H](Cc3ccc(C(F)(F)F)cc3)C(=O)N(C)CC(=O)N[C@@H](CCc3cc(F)c(C(F)(F)F)c(F)c3)C(=O)N2C1 [Compound 374] (cyclo([Ac5c][NMeI][NMedβ3hAla][NMeL]I[NMeA][Aze][NEtPhe(4-CF3)][Sar][hPhe(3,5-F2-4-CF3)][Hyp](Et)))",6.5 nM,≤ 20 nM
CC[C@H](C)[C@@H]1NC(=O)[C@H](CC(C)C)N(C)C(=O)C[C@@H](C)NC(=O)[C@H](C2CCCC2)N(C)C(=O)C2(CCCC2)NC(=O)[C@@H]2CCCN2C(=O)[C@H](CCc2ccc(C(F)(F)F)c(Cl)c2)NC(=O)CN(C)C(=O)[C@H](C)N(C)C(=O)[C@@H]2CCN2C(=O)[C@H](C)N(C)C1=O [Compound 1300] (cyclo([Ac5c][NMeGly(cPent)][d(β3hA)][NMeL]I[NMeA][Aze][NMeA][Sar][hPhe(3-Cl-4-CF3)]P)),94 nM,> 500 nM
CC[C@H](C)[C@@H]1NC(=O)[C@H](CC(C)C)N(C)C(=O)C[C@@H](C(=O)N2CCOCC2)N(C)C(=O)[C@H](C2CCCC2)N(C)C(=O)C2(CCCC2)NC(=O)[C@@H]2CCCN2C(=O)[C@H](CCc2ccc(C(F)(F)F)c(Cl)c2)NC(=O)CN(C)C(=O)[C@H](C2CCCC2)N(C)C(=O)[C@@H]2CCN2C(=O)[C@H](C)N(C)C1=O [Compound 302] ([NMeL]I[NMeA][Aze][NMeGly(cPent)][Sar][hPhe(3-Cl-4-CF3)]P[Ac5c][NMeGly(cPent)][NMeD]-Morpholide; lactam N-11),0.68 nM,≤ 20 nM
